# Experimental data taken from US10391108B2 (BioPharmX, Inc., priority 2015, dated 2019).
# Tested on: P. acnes ATCC 6919
# Experiment: Minimum Inhibitory Concentration (MIC), broth microdilution
# Format: cell-based
# Settings: 37° C., 2 days, anaerobic, tested 0.0078 to 16 μg/mL
# Method: The antimicrobial activity of minocycline was assessed by measuring the Minimum Inhibitory Concentration (MIC). MIC was also assessed for several other materials and combinations and relative MIC values were calculated as multiples of the minocycline MIC value. […] Test material was dissolved in water, diluted by two-fold serial titrations for a total of 11 concentrations. A 96-well plate was prepared by adding 196 μL of broth medium seeded with a strain of P. acnes ATCC 6919 bacteria. A 4 μL aliquot of a test substance dilution was added to each well to bring the total volume in each well to 200 μL. The test substance concentrations tested ranged from 0.0078 to 16 μg/mL. Plates were incubated at 37° C. for 2 days in anaerobic conditions. 96-well plates were read by a TECAN […] F50 ELISA microplate reader (Männedorf, Switzerland) in absorbance mode with a wavelength of 620 nm. Each well was evaluated for whether growth occurred or was inhibited. The lowest concentration for which growth was inhibited was recorded as the MIC. Each test substance was evaluated in duplicate.
smiles,measurement,value
"[Cl-].[Cl-].[Mg+2] [Magnesium chloride, magnesium chloride]",MIC value,did not inhibit growth at any of the concentrations tested
